The values below are quoted from earlier work in patent US20040229960A1, “Compositions and methods of administering tubulin binding agents for the treatment of ocular diseases” (priority 2001, published 2004).

For this series the following is noted: cited from earlier work.

With `COc1ccc(/C=C\c2cc(OC)c(OC)c(OC)c2)cc1O` [CA4, combretastatin A4], the Solubility in water result is reported as “essentially insoluble in water”.
